Values of other authors, collected in EP4568488B1, “VEGETABLE- AND/OR FRUIT-CONTAINING SNACK FOOD PRODUCTS AND MANUFACTURE THEREOF” (PepsiCo International Limited, priority 2022, dated 2024).
Like-named read-outs stand apart in the source and are kept apart here.

## CC1=C(/C=C/C(C)=C/C=C/C(C)=C/C=C/C=C(C)/C=C/C=C(C)/C=C/C2=C(C)CCCC2(C)C)C(C)(C)CCC1 [β-carotene]
Convective hot-air drying of carrot slices at 45°C
  half-life time of β-carotene: 3.02 ± 0.04 h
Convective hot-air drying of carrot slices at 65°C
  half-life time of β-carotene: 1.43 ± 0.03 h
